Measurements: PMC6920042 (Nature chemical biology, 2019)

What was measured:
[1] = tested on: Staphylococcus carnosus femB mutant; conditions: cited from earlier work
Staphylococcus carnosus = conditions: before femB mutation; cited from earlier work
[2] = NMR CSP residual binding of SH3b mutant domains to P4 ligand; conditions: 32 equivalents
[3] = NMR CSP residual binding of SH3b mutant domains to G5 ligand; conditions: 32 equivalents

Molecule: lysostaphin: bacteriolytic enzyme produced and secreted by Staphylococcus simulans biovar staphylolyticus
- increase in the MIC values associated with femB mutation ([1]; femB mutant vs parent): 3000 fold
- MIC ([1]; femB mutant): 32 µg/mL
- MIC (Staphylococcus carnosus): 0.01 µg/mL

B1: R427M: His-tagged lysostaphin SH3b domain with R427M substitution, for NMR (protein)
chain: SESASFTPNTDIITMTTGPFRSMPQSGVLKAGQTIHYDEVMKQDGHVWVGYTGNSGQRIYLPVRTWNKS
modifications: left off: His-tag, N-terminal, kept
- residual binding (ratio of chemical shift changes of mutant to WT, averaged over all amino acids) [2]: 1.6%

B2: W489L: His-tagged lysostaphin SH3b domain with W489L substitution, for NMR (protein)
chain: SESASFTPNTDIITRTTGPFRSMPQSGVLKAGQTIHYDEVMKQDGHVWVGYTGNSGQRIYLPVRTWNKSTNTLGVLL
modifications: left off: His-tag, N-terminal, kept
- residual binding (ratio of chemical shift changes of mutant to WT, averaged over all amino acids) [2]: 6.6%

B3: N405A: His-tagged lysostaphin SH3b domain with N405A substitution, for NMR (protein)
chain: AKYGTLYKSESASFTPNTDIITRTTGPFRSMPQSGVLKAGQTIHYDEVMKQDGHVWVGYTGNSGQRIYLPVRTWNKS
modifications: left off: His-tag, N-terminal, kept
- residual binding (ratio of chemical shift changes of mutant to WT, averaged over all amino acids) [3]: 16%
